Here are results for 23 molecules from patent US9586949B2, “Aza-heteroaryl compounds as PI3K-gamma inhibitors” (Incyte Corporation, priority 2015, dated 2017).

Assay [1] addresses PI3Kδ (p110δ/p85α) Recombinant Human Protein (Homo sapiens (Human), UniProt O00329). Nature of the assay: PI3Kδ Scintillation Proximity Assay. It is filed as biochemical. Particulars: 20 μM PIP2, 2 μM ATP, 3.4 nM PI3Kδ, 120 min; read-out: PI3K-delta SPA IC50. From the text: [γ-^33P]ATP (10 mCi/mL) and Wheat Germ Agglutinin (WGA) YSi SPA Scintillation Beads was purchased from Perkin-Elmer (Waltham, Mass.). Lipid kinase substrate, D-myo-Phosphatidylinositol 4,5-bisphosphate (PtdIns(4,5)P2)D (+)-sn-1,2-di-O-octanoylglyceryl, 3-O-phospho linked (PIP2), CAS 204858-53-7, was purchased from Echelon Biosciences (Salt Lake City, Utah). PI3Kδ (p110δ/p85α) Recombinant Human Protein was purchased from Eurofins (St Charles, Mo.). ATP, MgCl2, DTT, EDTA, MOPS and CHAPS were purchased from Sigma-Aldrich (St. Louis, Mo.).
(§1) The kinase reaction was conducted in polystyrene 384-well Greiner Bio-one white plate from Thermo Fisher Scientific in a final volume of 25 μL. Inhibitors were first diluted serially in DMSO and added to the plate wells before the addition of other reaction components. The final concentration of DMSO in the assay was 2%. The PI3Kδ assay was carried out at room temperature in 20 mM MOPS, pH 6.7, 10 mM MgCl2, 5 mM DTT and CHAPS 0.03%. Reactions were initiated by the addition of ATP, the final reaction mixture consisted of 20 μM PIP2, 2 μM ATP, 0.5 μCi [γ-^33P] ATP, 3.4 nM PI3Kδ. Reactions were incubated for 120 min and terminated by the addition of 40 μL SPA beads suspended in quench buffer: 163 mM potassium phosphate pH 7.8, 20% glycerol, 25 mM EDTA. The final concentration of SPA beads is 1.0 mg/mL. After the plate sealing, plates were shaken overnight at room temperature and centrifuged at 1500 rpm for 10 min, the radioactivity of the product was determined by scintillation counting on Topcount (Perkin-Elmer). IC50 determination was performed by fitting the curve of percent of the solvent control activity versus the log of the inhibitor concentration using the GraphPad Prism 6.0 software.

In assay [2] the target is PI3Kγ (p110γ) Recombinant Human Protein (Homo sapiens (Human), UniProt P48736). In words: PI3K-γ Scintillation Proximity Assay. It is filed as biochemical. Particulars: 20 μM PIP2, 2 μM ATP, 13 nM PI3Kγ, 120 min; read-out: PI3K-gamma SPA IC50. The method, then:
[γ-^33P]ATP (10 mCi/mL) and Wheat Germ Agglutinin (WGA) YSi SPA Scintillation Beads was purchased from Perkin-Elmer (Waltham, Mass.). […] PI3Kγ (p110γ) Recombinant Human Protein was purchased from Life technology (Grand Island, N.Y.). ATP, MgCl2, DTT, EDTA, MOPS and CHAPS were purchased from Sigma-Aldrich (St. Louis, Mo.).
as §1, with “PI3Kγ” for “PI3Kδ”, “ATP, 3.4 nM PI3Kδ. Reactions were incubated for 120 min and terminated by the addition of 40 μL SPA beads suspended in quench buffer: 163 mM potassium phosphate pH 7.8, 20% glycerol, 25 mM EDTA.” left out

PI3Kγ (p110γ) Recombinant Human Protein, sequence (P48736 whole entry): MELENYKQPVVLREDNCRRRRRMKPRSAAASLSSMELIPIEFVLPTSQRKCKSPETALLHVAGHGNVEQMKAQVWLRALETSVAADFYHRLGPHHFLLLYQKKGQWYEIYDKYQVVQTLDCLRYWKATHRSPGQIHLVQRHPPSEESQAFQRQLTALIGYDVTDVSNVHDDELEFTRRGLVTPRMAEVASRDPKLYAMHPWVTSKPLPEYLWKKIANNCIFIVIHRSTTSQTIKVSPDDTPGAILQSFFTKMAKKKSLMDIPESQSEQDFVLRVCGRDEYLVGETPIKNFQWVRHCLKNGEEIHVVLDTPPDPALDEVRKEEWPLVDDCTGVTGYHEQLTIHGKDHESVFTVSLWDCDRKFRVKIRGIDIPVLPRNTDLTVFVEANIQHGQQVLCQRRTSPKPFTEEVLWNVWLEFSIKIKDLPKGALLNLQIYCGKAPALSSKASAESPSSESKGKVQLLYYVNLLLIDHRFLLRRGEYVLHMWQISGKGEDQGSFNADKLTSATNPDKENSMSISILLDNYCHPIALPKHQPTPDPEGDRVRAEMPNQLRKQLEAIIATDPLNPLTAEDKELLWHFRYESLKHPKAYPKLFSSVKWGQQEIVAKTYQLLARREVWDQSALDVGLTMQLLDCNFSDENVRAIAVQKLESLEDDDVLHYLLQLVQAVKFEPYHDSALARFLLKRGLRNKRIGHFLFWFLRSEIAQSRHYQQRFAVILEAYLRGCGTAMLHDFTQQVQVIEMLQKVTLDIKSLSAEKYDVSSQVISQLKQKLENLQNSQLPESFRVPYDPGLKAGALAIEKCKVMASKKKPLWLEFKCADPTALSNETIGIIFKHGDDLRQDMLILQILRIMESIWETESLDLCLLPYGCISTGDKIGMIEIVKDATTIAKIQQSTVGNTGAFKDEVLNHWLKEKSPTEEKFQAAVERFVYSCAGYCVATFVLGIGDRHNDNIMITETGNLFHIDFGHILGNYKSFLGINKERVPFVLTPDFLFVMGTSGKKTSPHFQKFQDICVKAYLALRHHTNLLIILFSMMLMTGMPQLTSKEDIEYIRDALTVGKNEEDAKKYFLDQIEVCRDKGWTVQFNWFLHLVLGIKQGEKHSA
PI3Kδ (p110δ/p85α) Recombinant Human Protein, sequence (O00329 whole entry): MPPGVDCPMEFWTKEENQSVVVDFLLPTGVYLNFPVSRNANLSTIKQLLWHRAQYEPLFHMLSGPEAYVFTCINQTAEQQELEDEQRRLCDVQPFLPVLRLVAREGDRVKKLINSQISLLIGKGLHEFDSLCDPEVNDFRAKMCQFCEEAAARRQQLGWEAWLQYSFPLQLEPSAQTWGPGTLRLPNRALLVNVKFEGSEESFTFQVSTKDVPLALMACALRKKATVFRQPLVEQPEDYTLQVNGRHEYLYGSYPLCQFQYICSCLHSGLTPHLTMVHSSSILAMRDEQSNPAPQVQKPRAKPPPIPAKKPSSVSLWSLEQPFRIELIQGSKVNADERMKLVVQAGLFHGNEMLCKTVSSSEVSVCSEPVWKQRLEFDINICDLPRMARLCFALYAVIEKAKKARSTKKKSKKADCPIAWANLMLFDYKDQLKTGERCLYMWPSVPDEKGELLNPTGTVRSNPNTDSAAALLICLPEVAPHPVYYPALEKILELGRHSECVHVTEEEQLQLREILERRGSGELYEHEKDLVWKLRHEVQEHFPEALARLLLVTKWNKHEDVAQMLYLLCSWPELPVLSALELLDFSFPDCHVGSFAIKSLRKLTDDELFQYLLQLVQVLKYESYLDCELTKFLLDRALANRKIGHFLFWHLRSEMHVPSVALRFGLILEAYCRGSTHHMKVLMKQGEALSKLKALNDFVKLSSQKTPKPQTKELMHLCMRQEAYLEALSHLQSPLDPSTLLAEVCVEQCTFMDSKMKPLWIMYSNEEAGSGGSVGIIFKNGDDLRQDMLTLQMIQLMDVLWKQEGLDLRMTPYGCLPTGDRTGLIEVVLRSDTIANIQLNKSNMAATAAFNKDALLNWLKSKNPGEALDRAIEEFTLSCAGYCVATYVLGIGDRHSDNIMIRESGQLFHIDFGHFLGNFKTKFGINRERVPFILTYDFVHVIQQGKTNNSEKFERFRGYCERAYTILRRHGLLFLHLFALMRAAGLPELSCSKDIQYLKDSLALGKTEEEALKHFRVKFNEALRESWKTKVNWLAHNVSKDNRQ
PI3Kδ (p110δ/p85α) Recombinant Human Protein, sequence (P27986 whole entry partner): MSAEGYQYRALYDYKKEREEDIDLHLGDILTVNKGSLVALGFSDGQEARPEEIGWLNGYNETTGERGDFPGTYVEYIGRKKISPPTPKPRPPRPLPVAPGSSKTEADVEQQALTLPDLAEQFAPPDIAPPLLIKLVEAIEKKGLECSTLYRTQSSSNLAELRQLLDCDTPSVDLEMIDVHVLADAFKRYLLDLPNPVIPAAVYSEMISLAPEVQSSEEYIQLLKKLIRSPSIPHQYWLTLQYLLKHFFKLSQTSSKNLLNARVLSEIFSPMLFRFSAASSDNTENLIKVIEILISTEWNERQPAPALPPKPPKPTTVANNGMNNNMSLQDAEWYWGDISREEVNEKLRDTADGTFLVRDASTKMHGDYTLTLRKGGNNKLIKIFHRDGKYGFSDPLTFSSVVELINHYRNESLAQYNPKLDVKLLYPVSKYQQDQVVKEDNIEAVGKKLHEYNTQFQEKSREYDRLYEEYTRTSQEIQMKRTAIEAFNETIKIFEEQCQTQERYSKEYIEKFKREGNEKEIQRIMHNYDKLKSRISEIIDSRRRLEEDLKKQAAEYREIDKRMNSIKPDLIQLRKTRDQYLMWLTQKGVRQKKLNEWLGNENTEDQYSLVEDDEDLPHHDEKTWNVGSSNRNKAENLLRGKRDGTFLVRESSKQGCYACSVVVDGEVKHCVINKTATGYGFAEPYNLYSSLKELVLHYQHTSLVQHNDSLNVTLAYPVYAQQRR

For `O=S(=O)(Nc1cncc(-c2ccc3nc(-c4nc5ccccc5[nH]4)oc3c2)c1)c1ccc(F)cc1` [Example 17, N-(5-(2-(1H-Benzo[d]imidazol-2-yl)benzo[d]oxazol-6-yl)pyridin-3-yl)-4-fluorobenzenesulfonamide], the IC50 in assay [1] and in assay [2] was under 250 nM each time.

Take `O=S(=O)(Nc1cncc(-c2ccc3nc(-c4nc5ccccc5[nH]4)oc3c2)c1)c1cccc(F)c1` [Example 19, N-(5-(2-(1H-Benzo[d]imidazol-2-yl)benzo[d]oxazol-6-yl)pyridin-3-yl)-3-fluorobenzenesulfonamide]: the IC50 in assay [1] and in assay [2] was under 250 nM throughout.

Turning to `O=S(=O)(Nc1cncc(-c2ccc3nc(-c4nc5ccccc5[nH]4)oc3c2)c1)N1CCCCC1` [Example 20, N-(5-(2-(1H-Benzo[d]imidazol-2-yl)benzo[d]oxazol-6-yl)pyridin-3-yl)piperidine-1-sulfonamide], the IC50 in assay [1] is under 1000 nM; in assay [2], under 250 nM.

For `CN(C)S(=O)(=O)Nc1cncc(-c2ccc3nc(-c4nc5ccccc5[nH]4)oc3c2)c1` [Example 21, N′-{5-[2-(1H-Benzimidazol-2-yl)-1,3-benzoxazol-6-yl]-pyridin-3-yl}-N,N-dimethylsulfamide], the IC50 in assay [1] is under 1000 nM; in assay [2], under 250 nM.

With `Cc1ncc(-c2ccc3nc(-c4nc5ccccc5[nH]4)oc3c2)cc1NS(=O)(=O)N(C)C` [Example 22, N′-{5-[2-(1H-Benzimidazol-2-yl)-1,3-benzoxazol-6-yl]-2-methylpyridin-3-yl}-N,N-dimethylsulfamide], the IC50 in assay [1] and in assay [2] was under 250 nM each time.

For the molecule `CN(C)S(=O)(=O)Nc1cc(-c2ccc3nc(-c4nc5ccccc5[nH]4)oc3c2)cnc1F` [Example 23, N′-{5-[2-(1H-Benzimidazol-2-yl)-1,3-benzoxazol-6-yl]-2-fluoropyridin-3-yl}-N,N-dimethylsulfamide], the IC50 in assay [1] and in assay [2] was under 250 nM throughout.

Consider `CC(C)S(=O)(=O)Nc1cncc(-c2ccc3nc(-c4nc5ccccc5[nH]4)oc3c2)c1` [Example 24, N-(5-(2-(1H-Benzo[d]imidazol-2-yl)benzo[d]oxazol-6-yl)pyridin-3-yl)propane-2-sulfonamide], for which the IC50 in assay [1] is under 5000 nM; in assay [2], under 250 nM.

As for `CCS(=O)(=O)Nc1cc(-c2ccc3nc(-c4nc5ccccc5[nH]4)oc3c2)cnc1C` [Example 25, N-(5-(2-(1H-Benzo[d]imidazol-2-yl)benzo[d]oxazol-6-yl)-2-methylpyridin-3-yl)ethanesulfonamide], the IC50 in assay [1] and in assay [2] was under 250 nM in each case.

Take `CCS(=O)(=O)Nc1cc(-c2ccc3nc(-c4nc5ccccc5[nH]4)oc3c2)cnc1Cl` [Example 26, N-(5-(2-(1H-Benzo[d]imidazol-2-yl)benzo[d]oxazol-6-yl)-2-chloropyridin-3-yl)ethanesulfonamide]: the IC50 in assay [1] was at least 5000 nM; in assay [2] it was under 250 nM.

For the molecule `CCS(=O)(=O)Nc1cc(-c2ccc3nc(-c4nc5ccccc5[nH]4)oc3c2)cnc1F` [Example 27, N-(5-(2-(1H-Benzo[d]imidazol-2-yl)benzo[d]oxazol-6-yl)-2-fluoropyridin-3-yl)ethanesulfonamide], the IC50 is under 1000 nM in assay [1] and under 250 nM in assay [2].

Take `Cc1ncc(-c2ccc3nc(-c4nc5ccccc5[nH]4)oc3c2)cc1NS(=O)(=O)c1ccc(F)cc1` [Example 28, N-(5-(2-(1H-Benzo[d]imidazol-2-yl)benzo[d]oxazol-6-yl)-2-methylpyridin-3-yl)-4-fluorobenzenesulfonamide]: the IC50 in assay [1] and in assay [2] was under 250 nM throughout.

As to `O=S(=O)(Nc1cc(-c2ccc3nc(-c4nc5ccccc5[nH]4)oc3c2)cnc1Cl)c1ccc(F)cc1` [Example 29, N-(5-(2-(1H-Benzo[d]imidazol-2-yl)benzo[d]oxazol-6-yl)-2-chloropyridin-3-yl)-4-fluorobenzenesulfonamide], the IC50 in assay [1] and in assay [2] was under 250 nM in each case.

Consider `O=S(=O)(Nc1cc(-c2ccc3nc(-c4nc5ccccc5[nH]4)oc3c2)cnc1F)c1ccc(F)cc1` [Example 30, N-(5-(2-(1H-Benzo[d]imidazol-2-yl)benzo[d]oxazol-6-yl)-2-fluoropyridin-3-yl)-4-fluorobenzenesulfonamide], for which the IC50 in assay [1] and in assay [2] was under 250 nM in each case.

With `CN1CCN(S(=O)(=O)Nc2cncc(-c3ccc4nc(-c5nc6ccccc6[nH]5)oc4c3)c2)CC1` [Example 31, N-(5-(2-(1H-Benzo[d]imidazol-2-yl)benzo[d]oxazol-6-yl)pyridin-3-yl)-4-methylpiperazine-1-sulfonamide], the IC50 in assay [1] and in assay [2] was under 250 nM each time.

In the case of `CN1CCN(S(=O)(=O)Nc2cc(-c3ccc4nc(-c5nc6ccccc6[nH]5)oc4c3)cnc2F)CC1` [Example 32, N-(5-(2-(1H-Benzo[d]imidazol-2-yl)benzo[d]oxazol-6-yl)-2-fluoropyridin-3-yl)-4-methylpiperazine-1-sulfonamide], the IC50 in assay [1] and in assay [2] was under 250 nM in each case.

As for `CC(=O)Nc1cncc(-c2ccc3nc(-c4nc5ccccc5[nH]4)oc3c2)c1` [Example 33, N-(5-(2-(1H-Benzo[d]imidazol-2-yl)benzo[d]oxazol-6-yl)pyridin-3-yl)acetamide], the IC50 is at least 5000 nM in assay [1] and under 1000 nM in assay [2].

Turning to `CN(C)c1cncc(-c2ccc3nc(-c4nc5ccccc5[nH]4)oc3c2)c1` [Example 34, 5-(2-(1H-Benzo[d]imidazol-2-yl)benzo[d]oxazol-6-yl)-N,N-dimethylpyridin-3-amine], the IC50 was under 5000 nM in assay [1] and under 250 nM in assay [2].

Consider `N#Cc1cncc(-c2ccc3nc(-c4nc5ccccc5[nH]4)oc3c2)c1` [Example 35, 5-(2-(1H-Benzo[d]imidazol-2-yl)benzo[d]oxazol-6-yl)nicotinonitrile], for which the IC50 is at least 5000 nM in assay [1] and under 250 nM in assay [2].

Regarding `CS(=O)(=O)c1cncc(-c2ccc3nc(-c4nc5ccccc5[nH]4)oc3c2)c1` [Example 36, 2-(1H-Benzo[d]imidazol-2-yl)-6-(5-(methylsulfonyl)pyridin-3-yl)benzo[d]oxazole], the results for the IC50 in assay [1] and in assay [2] were under 5000 nM and under 250 nM, respectively.

As for `CN(C)S(=O)(=O)c1cncc(-c2ccc3nc(-c4nc5ccccc5[nH]4)oc3c2)c1` [Example 37, 5-[2-(1H-benzimidazol-2-yl)-1,3-benzoxazol-6-yl]-N,N-dimethylpyridine-3-sulfonamide], the IC50 in assay [1] was under 1000 nM; in assay [2] it was under 250 nM.

For `O=S(=O)(c1cncc(-c2ccc3nc(-c4nc5ccccc5[nH]4)oc3c2)c1)N1CCOCC1` [Example 38, 2-(1H-Benzo[d]imidazol-2-yl)-6-(5-(morpholinosulfonyl)pyridin-3-yl)benzo[d]oxazole], the IC50 in assay [1] was at least 5000 nM; in assay [2] it was under 250 nM.

In the case of `O=S(=O)(Nc1cncc(-c2ccc3nc(-c4ncc[nH]4)oc3c2)c1)c1ccc(F)cc1` [Example 39, N-(5-(2-(1H-Imidazol-2-yl)benzo[d]oxazol-6-yl)pyridin-3-yl)-4-fluorobenzenesulfonamide], the IC50 in assay [1] and in assay [2] was under 250 nM throughout.

As for `CCS(=O)(=O)Nc1cncc(-c2ccc3nc(-c4ncc[nH]4)oc3c2)c1` [Example 40, N-(5-(2-(1H-Imidazol-2-yl)benzo[d]oxazol-6-yl)pyridin-3-yl)ethanesulf-onamide], the IC50 in assay [1] is under 1000 nM; in assay [2], under 250 nM.
